# Tests used:
# SK-OV-3 = assay: Growth inhibition of human SKOV3 cells after 48 hrs by sulforhodamine B assay; type: functional; conditions: SK-OV-3, 48 h
# MOLT-4 = assay: Growth inhibition of human MOLT4 cells after 48 hrs by sulforhodamine B assay; type: functional; conditions: MOLT-4, 48 h
# CCRF-CEM = assay: Growth inhibition of human CCRF-CEM cells after 48 hrs by sulforhodamine B assay; type: functional
# K562 = assay: Growth inhibition of human K562 cells after 48 hrs by sulforhodamine B assay; type: functional; conditions: K562, 48 h
# MDA-MB-231 [1] = assay: Growth inhibition of human MDA-MB-231 cells after 48 hrs by sulforhodamine B assay; type: functional; conditions: MDA-MB-231, 48 h
# UACC-62 = assay: Growth inhibition of human UACC62 cells after 48 hrs by sulforhodamine B assay; type: functional; conditions: UACC-62, 48 h
# HCT-116 [2] = assay: Cell cycle arrest in human HCT116 cells assessed as accumulation of G2-M phase at 10 uM after 48 hrs using propidium iodide staining by flow cytometric analysis (reference value: 19.2%); type: functional
# [3] = Growth inhibition of human RXF393 cells after 48 hrs by sulforhodamine B assay; type: functional; conditions: RXF 393, 48 h
# SK-MEL-28 = assay: Growth inhibition of human SK-MEL-28 cells after 48 hrs by sulforhodamine B assay; type: functional; conditions: SK-MEL-28, 48 h
# SN12C = assay: Growth inhibition of human SN12C cells after 48 hrs by sulforhodamine B assay; type: functional
# ACHN = assay: Growth inhibition of human ACHN cells after 48 hrs by sulforhodamine B assay; type: functional
# A549 = assay: Growth inhibition of human A549 cells after 48 hrs by sulforhodamine B assay; type: functional; conditions: A549, 48 h
# NCI-H522 = assay: Growth inhibition of human NCI-H522 cells after 48 hrs by sulforhodamine B assay; type: functional; conditions: NCI-H522, 48 h
# PC-3 = assay: Growth inhibition of human PC3 cells after 48 hrs by sulforhodamine B assay; type: functional; conditions: PC-3, 48 h
# HCT-116 [4] = assay: Cell cycle arrest in human HCT116 cells assessed as accumulation of G0-G1 phase at 5 uM after 48 hrs using propidium iodide staining by flow cytometric analysis (reference value: 45.7%); type: functional
# NCI-H226 = assay: Growth inhibition of human NCI-H226 cells after 48 hrs by sulforhodamine B assay; type: functional; conditions: NCI-H226, 48 h
# HCT-116 [5] = assay: Growth inhibition of human HCT116 cells after 48 hrs by sulforhodamine B assay; type: functional; conditions: HCT-116, 48 h
# [6] = Growth inhibition of human SF539 cells after 48 hrs by sulforhodamine B assay; type: functional; conditions: SF-539, 48 h
# [7] = Therapeutic index, ratio of IC50 for human HeDe cells to IC50 for human HCT116 cells; type: cell-based, HCT-116; conditions: HeDe cells versus HCT116 cells, read-out: TI
# HCT-116 [8] = assay: Cell cycle arrest in human HCT116 cells assessed as accumulation of G2-M phase at 5 uM after 48 hrs using propidium iodide staining by flow cytometric analysis (reference value: 19.2%); type: functional
# HCT-116 [9] = assay: Cell cycle arrest in human HCT116 cells assessed as accumulation of sub-G0-G1 phase at 10 uM after 48 hrs using propidium iodide staining by flow cytometric analysis (reference value: 15.2%); type: functional
# HT-29 = assay: Growth inhibition of human HT-29 cells after 48 hrs by sulforhodamine B assay; type: functional; conditions: HT-29, 48 h
# MDA-MB-231 [10] = assay: Cell cycle arrest in human MDA-MB-231 cells assessed as accumulation of sub-G0-G1 phase at 10 uM after 48 hrs using propidium iodide staining by flow cytometric analysis (reference value: 8.4%); type: functional
# [11] = target: T1, Retinoblastoma-associated protein (Homo sapiens) (UniProt P06400); assay: Inhibition of pRb p110 phosphorylation in human MDA-MB-231 cells after 48 hrs by Western blotting; type: cell-based
# T1 sequence (whole entry): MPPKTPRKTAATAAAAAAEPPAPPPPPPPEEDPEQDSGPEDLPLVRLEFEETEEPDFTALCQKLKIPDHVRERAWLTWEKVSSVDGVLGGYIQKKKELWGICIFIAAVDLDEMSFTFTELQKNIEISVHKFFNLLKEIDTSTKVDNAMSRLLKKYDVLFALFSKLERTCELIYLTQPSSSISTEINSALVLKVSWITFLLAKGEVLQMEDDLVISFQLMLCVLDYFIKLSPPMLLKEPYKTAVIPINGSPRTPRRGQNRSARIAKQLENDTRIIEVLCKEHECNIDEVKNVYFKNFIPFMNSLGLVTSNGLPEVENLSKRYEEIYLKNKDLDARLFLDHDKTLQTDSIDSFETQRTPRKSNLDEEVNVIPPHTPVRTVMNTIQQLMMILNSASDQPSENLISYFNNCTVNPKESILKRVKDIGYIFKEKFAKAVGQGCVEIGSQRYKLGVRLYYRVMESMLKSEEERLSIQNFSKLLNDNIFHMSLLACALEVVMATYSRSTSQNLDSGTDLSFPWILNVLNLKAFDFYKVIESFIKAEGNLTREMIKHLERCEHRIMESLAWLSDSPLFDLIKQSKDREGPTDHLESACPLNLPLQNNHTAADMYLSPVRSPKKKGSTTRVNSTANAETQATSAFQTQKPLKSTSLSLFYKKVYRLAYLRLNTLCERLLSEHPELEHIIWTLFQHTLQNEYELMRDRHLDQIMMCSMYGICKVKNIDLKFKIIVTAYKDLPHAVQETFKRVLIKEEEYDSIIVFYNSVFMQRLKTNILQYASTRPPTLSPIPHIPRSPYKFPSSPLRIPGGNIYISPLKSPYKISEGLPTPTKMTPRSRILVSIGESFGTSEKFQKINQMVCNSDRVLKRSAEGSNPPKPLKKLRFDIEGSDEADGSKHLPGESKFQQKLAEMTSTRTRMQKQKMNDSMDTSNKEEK
# [12] = Cytotoxicity against human HuDe cells after 48 hrs by sulforhodamine B assay; type: cell-based
# HCT-116 [13] = assay: Cell cycle arrest in human HCT116 cells assessed as accumulation of G0-G1 phase at 10 uM after 48 hrs using propidium iodide staining by flow cytometric analysis (reference value: 45.7%); type: functional
# IGROV-1 = assay: Growth inhibition of human IGROV1 cells after 48 hrs by sulforhodamine B assay; type: functional; conditions: IGROV-1, 48 h
# NCI-H23 = assay: Growth inhibition of human NCI-H23 cells after 48 hrs by sulforhodamine B assay; type: functional; conditions: NCI-H23, 48 h
# [14] = Growth inhibition of human NCI-ADR-RES cells after 48 hrs by sulforhodamine B assay; type: functional
# MDA-MB-231 [15] = assay: Cell cycle arrest in human MDA-MB-231 cells assessed as accumulation of G0-G1 phase at 10 uM after 48 hrs using propidium iodide staining by flow cytometric analysis (reference value: 42.2%); type: functional
# TK-10 = assay: Growth inhibition of human TK10 cells after 48 hrs by sulforhodamine B assay; type: functional; conditions: TK-10, 48 h
# DU-145 = assay: Growth inhibition of human DU145 cells after 48 hrs by sulforhodamine B assay; type: functional; conditions: DU-145, 48 h
# [16] = Growth inhibition of human UO31 cells after 48 hrs by sulforhodamine B assay; type: functional; conditions: UO-31, 48 h
compound,measurement,setting,value
C=C1c2c(C)nn(-c3ccc(OC)cc3)c2N(C)C23CC1C1(C)c4c(C)nn(-c5ccc(OC)cc5)c4N(C)C(C)(CC12)C3 (stereo not drawn),GI50,SK-OV-3,3.39 µM
same,GI50,MOLT-4,2.6 µM
same,GI50,CCRF-CEM,3.41 µM
same,GI50,K562,3.6 µM
same,GI50,MDA-MB-231 [1],3.11 µM
same,GI50,UACC-62,2.86 µM
same,Activity,HCT-116 [2],10.3%
same,GI50,[3],1.9 µM
same,GI50,SK-MEL-28,5.86 µM
same,GI50,SN12C,3.65 µM
same,GI50,ACHN,3.3 µM
same,GI50,A549,2.69 µM
same,GI50,NCI-H522,2.77 µM
same,GI50,PC-3,1.75 µM
same,Activity,HCT-116 [4],59%
same,GI50,NCI-H226,4.44 µM
same,GI50,HCT-116 [5],2.82 µM
same,GI50,[6],3.16 µM
same,selectivity ratio,[7],26.9
same,Activity,HCT-116 [8],12.3%
same,Activity,HCT-116 [9],13.5%
same,GI50,HT-29,3.24 µM
same,Activity,MDA-MB-231 [10],4.6%
same,inhibition,[11],Dose-dependent effect
same,IC50,[12],76 µM
same,Activity,HCT-116 [13],63.8%
same,GI50,IGROV-1,7.54 µM
same,GI50,NCI-H23,3.86 µM
same,GI50,[14],4.04 µM
same,Activity,MDA-MB-231 [15],58.2%
same,GI50,TK-10,3.63 µM
same,GI50,DU-145,4.38 µM
same,GI50,[16],2.61 µM

# Reference: ChEMBL document CHEMBL3102801, “Synthesis and antiproliferative activity of new derivatives containing the polycyclic system 5,7:7,13-dimethanopyrazolo[3,4-b]pyrazolo[3',4':2,3]azepino[4,5-f]azocine” (Eur J Med Chem, 2014)
